The values below are quoted from earlier work in patent US4933274A, “Process for detecting genetic susceptibility to cancer” (United States of America Represented by the Secretary of …, priority 1988, dated 1990).

One data set has as its system normal cells. Conditions: ara-C 50 μM added to normal cells following irradiation.
The next data set deals with x-irradiated XP-A cells. The note with it: ara-C added to x-irradiated XP-A (xeroderma pigmentosum group A) cells.

Consider `Nc1ccn([C@@H]2O[C@H](CO)[C@@H](O)[C@@H]2O)c(=O)n1` [ara-C, β-cytosine arabinoside], for which the “frequency of chromatid damage” value with normal cells was “enhances the frequency of chromatid damage to the level observed in the irradiated cancer-prone cells”. In the data set on x-irradiated XP-A cells, the chromatid damage result is “no effect on chromatid damage”.
